Test [1] concerns the target T1, Acetylcholinesterase (Homo sapiens, UniProt P22303). Briefly: Inhibition of AChE (unknown origin) using acetylthiocholine as substrate assessed as substrate hydrolysis by spectrophotometric/Ellman method.
The target in test [2] is T2, Cholinesterase (Homo sapiens, UniProt P06276). Briefly: Inhibition of BChE (unknown origin) using butyrylthiocholine as substrate assessed as substrate hydrolysis by spectrophotometric/Ellman method. Background: DTNB colorimetry detects thiols as they appear.
The target in a further test is Beta-secretase 1 (Homo sapiens, UniProt P56817). Briefly: Inhibition of human recombinant BACE1 by fluorescence resonance energy transfer (FRET) assay.
In test [3] the target is T1, Acetylcholinesterase. The experiment in a line: Inhibition of AChE (unknown origin) by Dixon plot analysis.
Test [4] has as its target T1, Acetylcholinesterase. The experiment in a line: Mixed type inhibition of AChE (unknown origin) by Lineweaver-Burk plot analysis.
The target in test [5] is T2, Cholinesterase. Briefly: Inhibition of BChE (unknown origin) by Dixon plot analysis.
The target in test [6] is T2, Cholinesterase. The experiment in a line: Mixed type inhibition of BChE (unknown origin) by Lineweaver-Burk plot analysis.

Activity calls are given as the source filed them. No cut-off for these calls is given here.

The results in this text go back to ChEMBL document CHEMBL3585347, “Isolation of cholinesterase and β-secretase 1 inhibiting compounds from Lycopodiella cernua” (Bioorg Med Chem, 2015).

Sequence of Beta-secretase 1 (P56817 whole entry): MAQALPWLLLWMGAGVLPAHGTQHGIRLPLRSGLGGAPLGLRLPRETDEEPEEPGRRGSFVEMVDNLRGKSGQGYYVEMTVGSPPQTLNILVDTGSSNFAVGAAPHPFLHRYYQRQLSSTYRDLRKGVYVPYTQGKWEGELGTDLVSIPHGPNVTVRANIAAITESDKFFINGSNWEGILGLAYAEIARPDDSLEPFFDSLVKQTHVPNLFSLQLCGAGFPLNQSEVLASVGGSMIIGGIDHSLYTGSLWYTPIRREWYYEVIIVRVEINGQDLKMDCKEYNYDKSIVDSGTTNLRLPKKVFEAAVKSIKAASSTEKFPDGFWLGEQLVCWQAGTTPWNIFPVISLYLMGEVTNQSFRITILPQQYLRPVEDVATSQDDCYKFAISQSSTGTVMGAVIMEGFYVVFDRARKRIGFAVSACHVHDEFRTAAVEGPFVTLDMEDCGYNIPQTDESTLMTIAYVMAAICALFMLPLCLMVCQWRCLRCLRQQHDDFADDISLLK
T2 sequence (P06276 whole entry): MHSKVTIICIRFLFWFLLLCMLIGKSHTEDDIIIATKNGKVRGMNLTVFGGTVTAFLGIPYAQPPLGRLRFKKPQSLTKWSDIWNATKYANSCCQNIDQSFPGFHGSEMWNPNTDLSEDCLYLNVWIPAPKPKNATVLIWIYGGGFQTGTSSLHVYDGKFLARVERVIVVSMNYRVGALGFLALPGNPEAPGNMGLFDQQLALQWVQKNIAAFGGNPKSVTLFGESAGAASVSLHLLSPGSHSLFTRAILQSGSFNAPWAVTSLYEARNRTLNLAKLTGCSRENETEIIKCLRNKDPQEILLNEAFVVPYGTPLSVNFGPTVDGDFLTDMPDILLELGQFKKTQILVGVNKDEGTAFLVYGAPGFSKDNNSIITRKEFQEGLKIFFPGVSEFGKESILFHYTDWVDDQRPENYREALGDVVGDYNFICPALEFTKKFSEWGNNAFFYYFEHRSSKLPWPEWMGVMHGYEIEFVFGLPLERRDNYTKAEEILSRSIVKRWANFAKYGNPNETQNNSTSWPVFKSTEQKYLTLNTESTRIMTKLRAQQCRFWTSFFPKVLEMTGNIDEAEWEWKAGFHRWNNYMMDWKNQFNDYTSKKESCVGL
T1 sequence (P22303 whole entry): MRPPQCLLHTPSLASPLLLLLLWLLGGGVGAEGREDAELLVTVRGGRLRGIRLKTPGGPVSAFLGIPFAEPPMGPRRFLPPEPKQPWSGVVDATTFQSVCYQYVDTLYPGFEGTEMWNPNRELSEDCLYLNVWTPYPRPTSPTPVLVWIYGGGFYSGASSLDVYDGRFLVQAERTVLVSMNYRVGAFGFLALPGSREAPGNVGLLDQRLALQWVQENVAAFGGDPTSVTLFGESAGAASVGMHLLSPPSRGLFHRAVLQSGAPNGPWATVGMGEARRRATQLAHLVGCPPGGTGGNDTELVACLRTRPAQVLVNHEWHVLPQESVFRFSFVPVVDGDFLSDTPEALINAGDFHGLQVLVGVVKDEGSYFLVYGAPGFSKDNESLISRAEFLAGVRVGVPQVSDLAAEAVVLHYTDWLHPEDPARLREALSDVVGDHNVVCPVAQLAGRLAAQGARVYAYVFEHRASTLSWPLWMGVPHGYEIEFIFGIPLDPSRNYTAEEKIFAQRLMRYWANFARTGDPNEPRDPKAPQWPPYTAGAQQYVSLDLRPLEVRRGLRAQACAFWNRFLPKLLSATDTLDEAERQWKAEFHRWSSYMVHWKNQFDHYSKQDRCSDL

By IC50 is commonly meant the midpoint of a concentration-inhibition curve. For the compound `CC1(C)[C@H](O)CC[C@]2(C)[C@H]3CC[C@H]4[C@@](C)(CC[C@@H]5[C@]4(C)CC[C@@H](O)[C@]5(C)C(=O)O)CC3=CC(=O)[C@@H]12`, the IC50 is greater than 30 µM at Acetylcholinesterase [1], greater than 30 µM at Cholinesterase [2] and greater than 10 µM on Beta-secretase 1.
As a reminder, the Ki is the equilibrium dissociation constant of an inhibitor or competing ligand from its target. A high value points to weaker binding. For the compound `CC(=O)O[C@H]1CC[C@@]2(C)[C@@H](CC[C@@]3(C)C[C@@]4(O)CC[C@H]5C(C)(C)[C@@H](OC(C)=O)CC[C@]5(C)[C@H]4CC[C@@H]32)C1(C)C`, the concentration for half-maximal inhibition (IC50) at Acetylcholinesterase [1] was 0.91 µM; at Cholinesterase [2] it was greater than 30 µM; on Beta-secretase 1, greater than 10 µM. Moreover, on Acetylcholinesterase [3], the Ki came out at 2.49 µM. At Acetylcholinesterase [4], the inhibition result was “Active”.
Turning to `C[C@@]12CC[C@@H]3[C@](C)(CC[C@H](OC(=O)CCc4ccc(O)cc4)[C@]3(C)C(=O)O)[C@H]1CC[C@H]1C(=CC[C@@H]3[C@]1(C)CC[C@@H](O)[C@]3(C)CO)C2`, the values for the half-inhibitory concentration (IC50) on Acetylcholinesterase [1], at Cholinesterase [2] and at Beta-secretase 1 were 1.69 µM, 0.42 µM and greater than 10 µM, respectively. For the same compound, the Ki on Cholinesterase [5] is 0.99 µM; at Acetylcholinesterase [3], 7.97 µM. In addition, the inhibition result on Acetylcholinesterase [4] was “Active”.
As for `C[C@@]12CC[C@@H]3[C@](C)(CC[C@H](OC(=O)c4ccc(O)cc4)[C@]3(C)C(=O)O)[C@H]1CC[C@@H]1[C@@]3(C)CC[C@@H](O)[C@](C)(CO)[C@@H]3C[C@H](O)[C@@]1(O)C2`, the 50% inhibitory concentration (IC50) was greater than 30 µM on Acetylcholinesterase [1], greater than 30 µM on Cholinesterase [2] and 0.31 µM at Beta-secretase 1.
With `C[C@@]12CC[C@@H]3[C@](C)(CC[C@H](O)[C@]3(C)C(=O)O)[C@H]1CC[C@H]1C(=CC(=O)[C@@H]3[C@]1(C)CC[C@@H](O)[C@]3(C)CO)C2`, the IC50 at Acetylcholinesterase [1] was greater than 30 µM; at Cholinesterase [2], greater than 30 µM; on Beta-secretase 1 it was greater than 10 µM.
Consider `CC1(C)[C@H](O)CC[C@@]2(C)[C@H]1CC[C@@]1(C)CC3=CC[C@H]4C(C)(C)[C@H](O)CC[C@]4(C)[C@H]3CC[C@@H]12`, for which the IC50 on Acetylcholinesterase [1] was greater than 30 µM; at Cholinesterase [2] it was greater than 30 µM; on Beta-secretase 1, greater than 10 µM.
On to `CC1(C)[C@@H](O)CC[C@@]2(C)[C@H]1CC[C@@]1(C)C[C@@]3(O)CC[C@H]4C(C)(C)[C@@H](O)CC[C@]4(C)[C@H]3CC[C@@H]12`, for which the IC50 at Acetylcholinesterase [1] was greater than 30 µM; at Cholinesterase [2] it was greater than 30 µM; on Beta-secretase 1, greater than 10 µM.
Turning to `CCCC[C@@H](O)/C=C/C=C/C(=O)O`, the results for the IC50 at Acetylcholinesterase [1], at Cholinesterase [2] and at Beta-secretase 1 were 0.22 µM, greater than 30 µM and 6.91 µM, respectively. The compound also had a Ki at Acetylcholinesterase [3] of 1.17 µM. Moreover, the inhibition result on Acetylcholinesterase [4] is “Active”.
With `CC1(C)C(=O)CC[C@@]2(C)[C@H]1CC[C@@]1(C)CC3=CC(=O)[C@H]4C(C)(C)[C@H](O)CC[C@]4(C)[C@H]3CC[C@@H]12`, the IC50 at Acetylcholinesterase [1] was 10.7 µM; at Cholinesterase [2], greater than 30 µM; on Beta-secretase 1, 0.23 µM. The compound further gave an inhibition constant Ki at Cholinesterase [5] of 4.78 µM. On Cholinesterase [6], the inhibition result was “Active”.
For the compound `CC1(C)[C@H](O)CC[C@@]2(C)[C@H]1CC[C@@]1(C)CC3=CC[C@H]4C(C)(C)[C@@H](O)CC[C@]4(C)[C@H]3CC[C@@H]12`, the IC50 was greater than 30 µM on Acetylcholinesterase [1], 1.37 µM on Cholinesterase [2] and greater than 10 µM on Beta-secretase 1. This compound returned a Ki at Cholinesterase [5] of 4.88 µM. The inhibition result at Cholinesterase [6] is “Active”.
On to `C[C@@]12CC[C@@H]3[C@](C)(CC[C@H](OC(=O)/C=C/c4ccc(O)cc4)[C@]3(C)C(=O)O)[C@H]1CC[C@H]1C(=CC[C@@H]3[C@]1(C)CC[C@@H](O)[C@]3(C)CO)C2`, for which the IC50 is greater than 30 µM at Acetylcholinesterase [1], greater than 30 µM at Cholinesterase [2] and 1.07 µM on Beta-secretase 1.
Turning to `COC(=O)[C@]1(C)[C@@H]2CC[C@@]3(C)CC4=CC(=O)[C@@H]5[C@](C)(CC[C@@H](O)[C@]5(C)CO)[C@H]4CC[C@@H]3[C@@]2(C)CC[C@@H]1O` [LYCERNUIC KETONE A], the results for the IC50 on Acetylcholinesterase [1], at Cholinesterase [2] and at Beta-secretase 1 were greater than 30 µM, greater than 30 µM and greater than 10 µM, respectively.
For `COc1ccc(C(=O)O[C@H]2CC[C@@]3(C)[C@@H](CC[C@@]4(C)C[C@@]5(O)[C@H](CC[C@@H]43)[C@@]3(C)CC[C@@H](O)C(C)(C)[C@@H]3C[C@@H]5O)[C@@]2(C)C(=O)O)cc1O`, the figures for the IC50 on Acetylcholinesterase [1], at Cholinesterase [2] and at Beta-secretase 1 were 9.98 µM, greater than 30 µM and 0.98 µM, respectively.
